Data taken from patent publication US20110117106A1, “USES OF CALPAIN INHIBITORS TO INHIBIT INFLAMMATION” (priority 2008, published 2011).
“Also recorded” adds a separate entry of the source.

Legend:
[1] = tested on: PMN transmigration across 16HBE airway epithelial monolayers; test: PMN transmigration across polarized 16HBE monolayers (myeloperoxidase readout); assay type: cell-based, human; settings: 20 μM calpeptin
Excerpt: Human PMNs were isolated according to standard techniques from venous blood from healthy consenting adults in accordance with a protocol approved by the Institutional Review Board of Human Subjects at Columbia University (IRB-AAAC5450). PMNs were isolated using dextran sedimentation and Hypaque-Ficoll (Sigma) density-gradient separation, followed by hypotonic lysis of erythrocytes as previously described (Boyum et al, 1968). Purified PMNs were resuspended in HBSS with Ca^2+ and Mg^2+ before use in migration experiments. Migration assays were performed across 16HBE monolayers plated on the underside of 3 μm transwells which were coated with minimal essential media containing 0.01 mg/ml fibronectin, 0.03 mg/ml bovine collagen type I, 0.1 mg/ml BSA. After allowing the cells to adhere overnight, transwells were flipped over and inserted into 24-well plates. 500 μl of media was added to the lower chamber (apical surface of the cell) and 100 μl of media added to the transwell (basolateral surface of the cell). When the cells became confluent, they were polarized with an air liquid interface for 5 days by removing the 500 μl of media in the lower chamber. Selected wells were preincubated for 30 min with 20 μM calpeptin in the apical and basolateral chambers. Monolayers were stimulated with 250 μl heat killed PAO1 (10^7 CFU) or […] […]

[2] = tested on: PMN recruitment into the lung; test: Neonatal mouse model of intranasal P. aeruginosa PAO1 infection; assay type: in vivo
Method: Seven day old C57BL/6 wild type or tlr2^−/− mice (Jackson Laboratories) were intranasally inoculated with 10 μl PAO1 (10^8 CFU) (Tang et al, 1996). Control mice received 10 μl of PBS. Mice were pretreated with 20 mg/kg calpeptin or DMSO in PBS by intraperitoneal (i.p.) route 16 h and 2 h before intranasal inoculation and a third dose was administered by i.p. route 30 min post infection. Lungs were harvested 4 h after infection and cell suspensions used for PMN detection and immunoblotting. For neutrophil detection, lung cell suspensions were double stained with phycoerythrin (PE)-labeled anti-CD45 (to detect leukocytes) and fluorescein isothiocyanate (FITC)-labeled anti-Ly6G antibodies (to detect neutrophils) (BD Pharmingen) and analyzed by flow cytometry with a FACSCalibur using Cell Quest software (Becton Dickinson) (Gomez et al, 2004). Irrelevant, isotype-matched antibodies were used as a control. Cells were gated on the basis of their forward scatter and side scatter profile and analyzed for double expression of CD45 and Ly6G. Immunoblots were performed on 10 μg of protein obtained by lysing lung cells in OGP buffer as described herein for 1HAEo-cells. Mice protocol number AAAA5999 was approved by the Institutional Animal Care and Use Committee at Columbia University.

PMNs = test: PMN migration across a porous Transwell without epithelial cells; assay type: cell-based, human; design: dose or concentration left out as unconfirmed; settings: in response to live PAO1, heat-killed PAO1 or fMLP
[3] = target: T1, recombinant human myeloperoxidase (Homo sapiens, UniProt P05164); test: Myeloperoxidase assay with recombinant enzyme; assay type: biochemical; settings: 0.0125 μg/ml enzyme, 20 μM calpeptin
T1 construct: purchased R&D
T1 sequence (P05164 49-745): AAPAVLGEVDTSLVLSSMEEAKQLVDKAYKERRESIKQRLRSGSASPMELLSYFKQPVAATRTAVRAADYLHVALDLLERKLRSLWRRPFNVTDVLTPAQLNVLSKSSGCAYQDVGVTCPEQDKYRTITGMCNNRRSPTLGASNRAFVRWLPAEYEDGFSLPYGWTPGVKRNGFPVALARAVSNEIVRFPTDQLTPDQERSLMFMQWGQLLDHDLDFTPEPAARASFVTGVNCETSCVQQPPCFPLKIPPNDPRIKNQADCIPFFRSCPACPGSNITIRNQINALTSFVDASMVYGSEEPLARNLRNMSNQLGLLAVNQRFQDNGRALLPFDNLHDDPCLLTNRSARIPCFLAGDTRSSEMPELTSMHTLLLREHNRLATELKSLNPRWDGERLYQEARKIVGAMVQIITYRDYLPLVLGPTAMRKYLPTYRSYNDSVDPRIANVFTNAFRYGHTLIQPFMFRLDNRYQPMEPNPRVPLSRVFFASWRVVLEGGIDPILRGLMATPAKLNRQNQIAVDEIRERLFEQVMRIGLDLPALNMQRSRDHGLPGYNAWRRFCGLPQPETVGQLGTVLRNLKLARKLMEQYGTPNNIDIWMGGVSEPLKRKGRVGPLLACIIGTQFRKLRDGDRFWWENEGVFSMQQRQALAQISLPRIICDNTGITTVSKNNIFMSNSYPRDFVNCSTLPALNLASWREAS

PMN myeloperoxidase = PMN myeloperoxidase (Homo sapiens, UniProt P05164); test: Myeloperoxidase activity of PMNs; settings: 10^4 PMNs, 20 μM calpeptin
[4] = tested on: PMN recruitment into the lung and airway lumen; test: Adult C57BL/6 mouse P. aeruginosa infection with bronchoalveolar lavage; assay type: in vivo; settings: adult C57BL/6, i.p. calpeptin, 2 hr infection, versus vehicle
Method: To test the effects of calpain inhibition on the transmigration of PMNs into P. aeruginosa-infected airways, bronchoalveolar lavage (BAL) experiments were performed on adult C57BL/6 mice. Mice were treated with i.p. calpeptin or vehicle and intranasally infected with P. aeruginosa for 2 hr. PMNs from BAL or whole-lung suspension were quantified by flow cytometry. Compared to vehicle-treated controls, calpeptin-treated mice had 37% fewer PMNs recruited into the whole lung and 90% fewer into the airway lumen, indicating a more pronounced effect on the epithelial junctions (FIG. 8D). […] Thus, recruitment of PMNs into the murine lung and airway lumen in response to P. aeruginosa is facilitated by calpain activity and its effects on junctional proteins at the mucosal surface.

## CCCC[C@@H](C=O)NC(=O)[C@H](CC(C)C)NC(=O)OCc1ccccc1 [calpeptin, Z-Leu-Nle-CHO]
[1]; p<0.001
  Heat killed P. aeruginosa PAO1 induced PMN transmigration: inhibited
[1]; p<0.05
  P3C-induced PMN transmigration: inhibited
[2]; 7-day old mice, i.p. calpeptin, 4 hours following intranasal P. aeruginosa, versus vehicle-treated, p<0.05
  Fewer PMNs recruited into the lung: 31%
[2]; infected wild type mice, i.p. calpeptin versus vehicle
  Occludin and E-cadherin cleavage products in whole lung lysates: substantially decreased
[2]; tlr2−/− pups, calpain inhibition
  PMN recruitment in tlr2−/− animals: not further diminished
PMNs
  Migration of PMNs across a porous Transwell (without epithelial cells): no effect; also recorded: not affected
PMNs; listed as Calpeptin
  Migration of PMNs across a porous Transwell (without epithelial cells): did not directly inhibit
[3]
  Myeloperoxidase activity of recombinant human myeloperoxidase: nor did calpeptin inhibit; also recorded: not inhibited
PMN myeloperoxidase
  Myeloperoxidase activity / production by PMNs: not inhibited
[4]
  Fewer PMNs recruited into the airway lumen (BAL): 90%
  Fewer PMNs recruited into the whole lung: 37%
